Key:
[1] = tested on: Herpes simplex Typ 1; assay: One-step replication cycle on chick embryo cells; format: cell-based; conditions: Beispielreihe 2, HEZ
[2] = tested on: SE-spezifischen IgM- und IgG-PBZ; assay: Haemolysis plaque test (immunostimulation); format: in vivo, Maus (Inzuchtstamm CBA); conditions: 2,0 mg/kg daily over 5 days, peroral, p < 0,001
Description: (§1) Der Nachweis immunstimulierender Effekte wurde weiterhin an der Maus (Inzuchtstamm CBA) und u. a. mit Hilfe folgender Nachweismethoden geführt: • Plaque-Test zum Nachweis von SE-spezifischen IgM- und IgG-PBZ, • Rosettentest.
Aus den Werten wird deutlich, daß die Verbindungen der allgemeinen Formel I einen gut nachweisbaren Effekt auf die Effektor-T-Lymphozyten-abhängige verzögerte Uberempfindlichkeit haben. Kontaktdermatitis-Werte ab 120 (≙ 20 % Steigerung gegenüber der Kontrolle) bzw. unter 80 werden als Nachweis eines stimulatorischen bzw. suppressorischen Effektes angesehen. Antikörpertiter-Differenzen von >+1 bzw. <-1 verdeutlichen den stimulatorischen bzw. suppressorischen Effekt der Substanzen auf die humorale Immunantwort. 2. Untersuchungen zur immunstimulierenden Wirkung • 2.1 Plaque-Test zum Nachweis von SE-spezifischen IgM- und IgG-PBZ Zur Prüfung immunstimulierender Effekte wurde u. a. auch der Einfluß von Verbindungen der allgemeinen Formel I auf die humorale Immunantwort an Mäusen des Inzuchtstammes CBA und mittels Hämolyse-Plaque-Test (HPT) untersucht. Diese Technik erlaubt die quantitative und getrennte Erfassung IgM- und IgG-Antikörper produzierender Zellen (= Plaque bildende Zellen; PBZ). […]

[3] = tested on: Vesicular-stomatitis Indiana; assay: Plaque reduction test on primary HEZ; format: cell-based
[4] = tested on: SE-spezifischen IgM- und IgG-PBZ; assay: Plaque test after damage of the immune system by cyclophosphamide (immunorestoration); format: in vivo, CBA-Inzuchtmäuse; conditions: ZY 150 mg/kg day -1 + 2 mg/kg oral days -2 to +2
Description: Der Nachweis von immunrestaurativen Wirkungen erfolgte nach Schädigung des Immunsystems ebenfalls mittels • Plaque-Test zum Nachweis von SE-spezifischen IgM- und IgG-PBZ sowie durch • Rosettentest.
Aus den Werten wird deutlich, daß die Verbindungen der allgemeinen Formel I einen gut nachweisbaren Effekt auf die Effektor-T-Lymphozyten-abhängige verzögerte Uberempfindlichkeit haben. Kontaktdermatitis-Werte ab 120 (≙ 20 % Steigerung gegenüber der Kontrolle) bzw. unter 80 werden als Nachweis eines stimulatorischen bzw. suppressorischen Effektes angesehen. Antikörpertiter-Differenzen von >+1 bzw. <-1 verdeutlichen den stimulatorischen bzw. suppressorischen Effekt der Substanzen auf die humorale Immunantwort. 2. Untersuchungen zur immunstimulierenden Wirkung • 2.1 Plaque-Test zum Nachweis von SE-spezifischen IgM- und IgG-PBZ Zur Prüfung immunstimulierender Effekte wurde u. a. auch der Einfluß von Verbindungen der allgemeinen Formel I auf die humorale Immunantwort an Mäusen des Inzuchtstammes CBA und mittels Hämolyse-Plaque-Test (HPT) untersucht. Diese Technik erlaubt die quantitative und getrennte Erfassung IgM- und IgG-Antikörper produzierender Zellen (= Plaque bildende Zellen; PBZ). Die Immunisierung mit Schaferythrozyten (SE) erfolgte am Tag 0, die Substanzapplikation (Tagesdosis 1.10^-5 mol/kg Körpermasse; peroral) an den Tagen -1 bis +3 (zur Erfassung der IgM-PBZ) bzw. an den Tagen +1 bis +5 (zur Erfassung der IgG-PBZ). • 2.2 Ergebnisse: Durch tägliche und über 5 Tage gehende Gabe von 2,0 mg der Verbindung gemäß Beispiel 1 pro kg Körpermasse konnte die Zahl der IgM-PBZ auf einen Durchschnittswert von 352 % im Vergleich zur Kontrolle (100 %) gesteigert werden. Die gleiche Form der Behandlung führte zu einer Erhöhung der IgG-PBZ auf 497 % (Kontrolle: 100 %). In beiden Fällen erwies sich die Differenz zur Kontrolle im t-Test mit p < 0,001 als signifikant. Es wird deutlich, daß eine über 5 Tage gehende tägliche Behandlung mit der Verbindung gemäß Beispiel 1 bei der CBA-Maus eine hochsignifikante Steigerung SE-spezifischer IgM- und IgG-PBZ hervorruft. • 2.3 Rosettentest (SE-spezifische Rosetten) Nach der BURNET'schen Theorie tragen die Lymphozyten auf ihrer Oberfläche Immunglobulin-Rezeptoren, die gegen ein bestimmtes Antigen gerichtet und durch eine Reaktion mit dem spezifischen Antigen nachweisbar sind. Die Bestimmung der Anzahl an rosettenbildenden Zellen (RBZ) kann als Maß für die Stärke einer anlaufenden Immunreaktion dienen und folgend auch Effekte im Sinne einer Suppression oder Stimulierung zellproliferativer Prozesse wiedergeben. Drei Tage nach der intravenösen Immunisierung mit 2·10^5 Schaferythrozyten (SE) in 0,2 ml physiologischer Kochsalzlösung wurden die Versuchstiere durch Überstrecken getötet, die Milz entnommen und unter Zugabe von Parker-Medium (pH 7,4) durch Müller-Gaze gerieben. Die Arbeiten zur Gewinnung der Zellsuspension wurden im Eiswasserbad (ca 0 bis 4 °C) durchgeführt. In einer Zählkammer nach Neubauer erfolgte die Bestimmung der Zelldichte, und anschließend wurde die für alle Versuchsansätze konstante Zellzahl von 1·10^7 kernhaltigen Zellen (KHZ)/ml Medium eingestellt. 0,9 ml der Milzzellsuspension (1·10^7 KHZ/ml) wurden dann mit 0,1 ml einer 5 %igen gewaschenen Schaferythrozytensuspension versetzt und 24 Stunden bei 4 °C inkubiert. […] 3. Untersuchungen zu immunrestaurativen Effekten 3.1 Der Nachweis der immunrestaurativen Wirksamkeit von Verbindungen der allgemeinen Formel I wurde u. a. dadurch geführt,daß das Immunsystem der Versuchstiere (CBA-Inzuchtmäuse) durch Chemotherapie (Zyklophosphamid, Carageenan, Iloprost) bzw. Bestrahlung geschädigt wurde. Die Prüfung erfolgte u. a. mittels folgender oben erläuterter Techniken: • Plaque-Test zum Nachweis von SE-spezifischen IgM- und IgG-PBZ, • Rosettentest. […]

[5] = tested on: SE-spezifischer rosettenbildender Zellen; assay: Rosette test (SE-specific rosettes); format: in vivo, Maus (Inzuchtstamm CBA); conditions: oral administration
Description: as §1
Aus den Werten wird deutlich, daß die Verbindungen der allgemeinen Formel I einen gut nachweisbaren Effekt auf die Effektor-T-Lymphozyten-abhängige verzögerte Uberempfindlichkeit haben. Kontaktdermatitis-Werte ab 120 (≙ 20 % Steigerung gegenüber der Kontrolle) bzw. unter 80 werden als Nachweis eines stimulatorischen bzw. suppressorischen Effektes angesehen. Antikörpertiter-Differenzen von >+1 bzw. <-1 verdeutlichen den stimulatorischen bzw. suppressorischen Effekt der Substanzen auf die humorale Immunantwort. 2. Untersuchungen zur immunstimulierenden Wirkung • 2.1 Plaque-Test zum Nachweis von SE-spezifischen IgM- und IgG-PBZ Zur Prüfung immunstimulierender Effekte wurde u. a. auch der Einfluß von Verbindungen der allgemeinen Formel I auf die humorale Immunantwort an Mäusen des Inzuchtstammes CBA und mittels Hämolyse-Plaque-Test (HPT) untersucht. Diese Technik erlaubt die quantitative und getrennte Erfassung IgM- und IgG-Antikörper produzierender Zellen (= Plaque bildende Zellen; PBZ). Die Immunisierung mit Schaferythrozyten (SE) erfolgte am Tag 0, die Substanzapplikation (Tagesdosis 1.10^-5 mol/kg Körpermasse; peroral) an den Tagen -1 bis +3 (zur Erfassung der IgM-PBZ) bzw. an den Tagen +1 bis +5 (zur Erfassung der IgG-PBZ). • 2.2 Ergebnisse: Durch tägliche und über 5 Tage gehende Gabe von 2,0 mg der Verbindung gemäß Beispiel 1 pro kg Körpermasse konnte die Zahl der IgM-PBZ auf einen Durchschnittswert von 352 % im Vergleich zur Kontrolle (100 %) gesteigert werden. Die gleiche Form der Behandlung führte zu einer Erhöhung der IgG-PBZ auf 497 % (Kontrolle: 100 %). In beiden Fällen erwies sich die Differenz zur Kontrolle im t-Test mit p < 0,001 als signifikant. […]

[6] = 250 µmol/l, mean of three experiments

| SMILES | Senkung des Virusertrages im Vergleich zur unbehandelten Kontrolle ([1]; 125 µmol/l, mean of three experiments) | % Hemmung ([1]; 125 µmol/l, n.s. = nicht signifikant) | % Hemmung [1, 6] | Senkung des Virusertrages im Vergleich zur unbehandelten Kontrolle [1, 6] | IgG-PBZ (Kontrolle: 100 %) ([2]; days +1 to +5) | Zahl der IgM-PBZ im Vergleich zur Kontrolle (100 %) ([2]; days -1 to +3, average value) | Plaquereduktion in % zur Viruskontrolle auf primären HEZ ([3]; 125 µmol/l, mean of two experiments) | Plaquereduktion in % zur Viruskontrolle auf primären HEZ ([3]; 250 µmol/l, footnote x = keine signifikante Wirkung) | Plaquereduktion in % zur Viruskontrolle auf primären HEZ ([3]; 62,5 µmol/l, mean of two experiments, 62.5 µM) | IgM-PBZ/10^6 ([4]; test day + 3) | IgM-PBZ/10^6 ([4]; test day + 4) | IgM-PBZ/10^6 ([4]; test day + 5, p <0,05) | IgM-PBZ/10^6 ([4]; test day + 6) | IgG-PBZ/10^6 Milzzellen ([4]; test day + 6, p <0,05) | IgG-PBZ/10^6 Milzzellen ([4]; test day + 7, p <0,01) | IgG-PBZ/10^6 Milzzellen ([4]; test day + 8) | SE-spezifischer rosettenbildender Zellen [5] |
| --- | --- | --- | --- | --- | --- | --- | --- | --- | --- | --- | --- | --- | --- | --- | --- | --- | --- |
| O=c1[nH]c2ccccc2c(=O)n1CCS [Beispiel 1, 3-(2-Mercaptoethyl)-chinazolin-2,4(1H,3H)-dion] | 0,33 log10 TCID50/0,2 ml | n. s. | 99% | 1,0 log10 TCID50/0,2 ml | 497% | 352% | 15% | 45 ^x % | 0% | 31,7 ± 26,6 /10^6 | 59,8 ± 26,6 /10^6 | 125,2 ± 32,7 /10^6 | 47,8 ± 31,2 /10^6 | 88,3 ± 24,8 /10^6 Milzzellen | 128,3 ± 28,6 /10^6 Milzzellen | 58,3 ± 43,6 /10^6 Milzzellen |  |
| COc1cc2[nH]c(=O)n(CCCS)c(=O)c2cc1OC [Beispiel 2, 3-(3-Mercaptoprop-1-yl)-6,7-dimethoxychinazolin-2,4(1H,3H)-dion] |  |  |  |  |  |  |  |  |  |  |  |  |  |  |  |  | signifikante Förderung |

Reference: patent EP0454060B1, “3-(Mercaptoalkyl)-quinazoline-2,4(1H,3H)-diones, processes for their preparation, and pharmaceutical compositions” (priority 1990, dated 1991)
